Results from ChEMBL document CHEMBL1201862, “PubChem BioAssay data set” (2004).
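Tested at 5 concentrations; 48 h exposure; 96-well plates; endpoints linearly interpolated, else capped at highest concentration. GI50 = concentration required for 50% inhibition of growth.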 Activity calls are given as the source filed them. No stated cut-off is given here; in the data, active = GI50 up to about 1.1 µM and inactive = higher.

How the values were obtained:
Assay in all cases: NCI-60 cell line screen, 48 h
[1] = system: LOX IMVI
[2] = system: HT-29
[3] = system: MDA-MB-435
[4] = system: Hs-578T
[5] = system: NCI-H226
[6] = system: OVCAR-5
[7] = system: CAKI-1
[8] = system: SK-OV-3
[9] = system: U-251
[10] = system: OVCAR-3
[11] = system: SF-539
[12] = system: DU-145
[13] = system: SNB-19
[14] = system: NCI-H460
[15] = system: BT-549
[16] = system: SK-MEL-5
[17] = system: SR
[18] = system: Malme-3M
[19] = system: SW-620
[20] = system: RXF 393
[21] = system: SF-268
[22] = system: NCI-H23
[23] = system: OVCAR-8
[24] = system: OVCAR-4
[25] = system: M14
[26] = system: HCC 2998
[27] = system: MDA-N
[28] = system: SK-MEL-2
[29] = system: UO-31
[30] = system: SF-295
[31] = system: TK-10
[32] = system: UACC-62
[33] = system: KM12
[34] = system: HOP-62
[35] = system: SN12C
[36] = system: RPMI-8226
[37] = system: A549
[38] = system: A498
[39] = system: MDA-MB-231
[40] = system: HOP-92
[41] = system: HCT-116
[42] = system: NCI/ADR-RES
[43] = system: 786-0
[44] = system: UACC-257
[45] = system: K562
[46] = system: HCT-15
[47] = system: ACHN
[48] = system: T47D
[49] = system: COLO 205
[50] = system: EKVX
[51] = system: SK-MEL-28
[52] = system: NCI-H522
[53] = system: SNB-75
[54] = system: MCF7
[55] = system: PC-3
[56] = system: IGROV-1

Measured: GI50

CCN(CC)C(=S)SS(=O)(=O)c1ccc(Cl)cc1
31.3 µM: [46]
inactive: [1] 15.4 µM | [2] 17.8 µM | [3] 20.5 µM | [4] 43.5 µM | [5] 62.7 µM | [6] 44 µM | [7] 19.8 µM | [8] 64.3 µM | [9] 15.1 µM | [10] 31.7 µM | [11] 21.6 µM | [12] 27.3 µM | [13] 38.3 µM | [14] 29 µM | [15] 34.4 µM | [16] 9.04 µM | [18] 11.7 µM | [19] 17.1 µM | [20] 17.6 µM | [21] 53 µM | [22] 38.5 µM | [23] 16.9 µM | [24] 45.5 µM | [25] 17.3 µM | [26] > 100 µM | [27] 36.1 µM | [28] 65.6 µM | [29] 17.7 µM | [30] 38.7 µM | [31] 67.8 µM | [32] 20.5 µM | [33] 11.7 µM | [34] 22.7 µM | [35] 20.2 µM | [36] 15 µM | [38] > 100 µM | [39] 34.9 µM | [40] 16.9 µM | [41] 30.3 µM | [42] 35.4 µM | [43] 29.9 µM | [44] 24.2 µM | [45] 14.5 µM | [47] 33.2 µM | [48] 46.2 µM | [49] 26.5 µM | [50] > 100 µM | [51] 17.9 µM
active: [17] 0.0796 µM | [37] 0.484 µM | [52] 0.0319 µM

CN(C)C(=S)N/N=C(\C(=N/NC(=S)N(C)C)c1ccccn1)c1ccccn1
6.81 µM: [46]
active: [4] 1.01 µM
inactive: [1] 11.8 µM | [2] 3.22 µM | [3] 10.1 µM | [5] 12.6 µM | [6] 14 µM | [7] 14.8 µM | [8] 14.4 µM | [53] 12.2 µM | [9] 3.99 µM | [10] 3.85 µM | [11] 25.5 µM | [54] 1.66 µM | [12] 4.21 µM | [13] 12.8 µM | [14] 2.56 µM | [15] 14.6 µM | [16] 9.02 µM | [18] 12.9 µM | [19] 6.24 µM | [20] 5.21 µM | [21] 6.14 µM | [22] 12.3 µM | [23] 7.14 µM | [24] 7.28 µM | [25] 11.4 µM | [26] 7.55 µM | [27] 11.2 µM | [28] 10.7 µM | [55] 4.26 µM | [29] 6.7 µM | [30] 11.6 µM | [31] 8.11 µM | [32] 6.3 µM | [56] 8.41 µM | [33] 4.82 µM | [34] 10.9 µM | [35] 5.41 µM | [36] 5.3 µM | [37] 6.55 µM | [38] 14.8 µM | [39] 14.7 µM | [40] 9.35 µM | [41] 5.78 µM | [42] 20.7 µM | [43] 10.4 µM | [44] 10.7 µM | [45] 8.28 µM | [47] 6.61 µM | [48] 3.21 µM | [49] 2.17 µM | [50] 12 µM | [51] 16.4 µM | [52] 2.65 µM
